Measurements as given in patent US9187458B2, “Cyanoquinoline derivatives” (Tianjin Hemay Bio-Tech Co., LTD., priority 2010, dated 2015).

Legend:
[1] = test system: AsPC-1 cells; experiment: AsPC-1 Cell Growth Inhibition Test (MTT Assay); format: cell-based; conditions: Homo sapiens, ASPC1, 72 h incubation
Outline: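 Human pancreatic cancer AsPC-1 cells seeded at 8000 cells/well, incubated overnight, then exposed to compound for 72 h at 37 °C, 5% CO2. Viability read by MTT (0.5 mg/ml, 3 h), formazan dissolved in DMSO, OD at 490 nm. Inhibition ratio = (PC−n)/(PC−NC)×100%; IC50 = concentration giving 50% inhibition, curve-fitted.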

[2] = test system: BT-474 cells; experiment: BT-474 Cell Growth Inhibition Test (SRB Assay); format: cell-based, human; conditions: 70 h incubation; for IC50 / inhibition at 1 µM: Homo sapiens; for Growth Inhibition Ratio (%) / inhibition at 1 µM: compound 1 μM; for inhibition at 1 µM: BT-474, 70 h, read-out: Growth Inhibition Ratio (%)
Outline: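 Human breast tumour BT-474 cells (1×10^5/ml seeding, overnight) exposed to compound 70 h at 37 °C, 5% CO2; TCA-fixed, SRB-stained, dye dissolved in 10 mM Tris and OD read at 570 nm. Inhibition ratio = (PC−n)/(PC−NC)×100%; IC50 is the concentration giving 50% inhibition, from fitted curves.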

[3] = test system: NCI-H460 cells; experiment: NCI-H460 Cell Growth Inhibition Test (MTT Assay); format: cell-based; conditions: Homo sapiens, 72 h incubation
Outline: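 Cells seeded at 2500 per well, left overnight, then exposed to compound for 72 h at 37 °C, 5% CO2. Viability by MTT (0.5 mg/ml, 3 h), DMSO-dissolved, OD 490 nm; inhibition ratio = (PC−n)/(PC−NC)×100%, IC50 from curve fit.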

[4] = test system: NCI-N87 cells; experiment: NCI-N87 Cell Growth Inhibition Test (MTT Assay); format: cell-based; conditions: Homo sapiens, 72 h incubation
Description: NCI-N87 Cell Growth Inhibition Test (MTT Assay)
1. Cell strains: NCI-N87 (human gastric carcinoma cell strains);
1. A plate (10 cm) of cells in logarithmic growth phase normally cultured was collected;
2. The culture solution was sucked out. The plate was washed wtih 5 ml of PBS 1-2 times;
3. PBS was sucked out. 1.5 ml of 0.25% pancreatin was added to infiltrate the cells for 1 min;
4. The pancreatin was sucked out. The culture plate was placed in an incubator. Digestion was carried out for about 12 min at 37° C.;
5. 4.5 ml of complete culture solution was added to the culture plate to stop the digestion. The cells were carefully scoured with micropipette (1 ml) to give a uniform cell suspension. The suspension was implanted into a 96-well cell culture disc by 17000 cells/100 μl per well. The culture plate was incubated overnight under 5% CO2 at 37° C. In day 2, 100 μl of culture solution comprising a compound was added in each well, and further incubated for 72 h under 5% CO2 at 37° C.
6. The culture solution was sucked out;
7. 100 μl of serum-free culture solution containing 0.5 mg/ml MTT was added in each well, and incubated for 3 h;
8. The culture solution was carefully sucked out;
9. 100 μl of DMSO was added in each welland vibrated to dissolve;
10. OD values were determined at 490 nM.
1. Calculation of Rrelative Inhibition Ratio The inhibition ratio of a compound on cell growth=(PC−n)/(PC−NC)×100%
IC50: Concentration of a compound where inhibition ratio was 50%. IC50 values were fitted with Origin7.5.

[5] = test system: A549 cells; experiment: A549 Cell Growth Inhibition Test (MTT Assay); format: cell-based; conditions: Homo sapiens, 72 h incubation
Outline: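 Human lung cancer A549 cells, seeded at 2500 cells per well, were exposed to compound for 72 h at 37° C., 5% CO2. Viability by MTT (0.5 mg/ml, 3 h), DMSO-dissolved, OD at 490 nm; IC50 fitted from inhibition ratio relative to controls.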

CN(C)C/C=C/C(=O)Nc1cc2c(Nc3ccc(F)c(Cl)c3)c(C#N)cnc2cc1OC1CCOC1 (centres unmarked) [Example 4, (E)-N-(4-(3-CHLORO-4-FLUOROPHENYLAMINO)-3-CYANO-7-(TETRAHYDROFURAN-3-YL-OXY)QUINOLIN-6-YL)-4-(DIMETHYLAMINO)-BUT-2-ENAMIDE]
IC50 [1]: 1000 nM | IC50 [2]: 140 nM | Growth Inhibition Ratio (%) [2]: 79% | IC50 [3]: 1600 nM | IC50 [4]: 79 nM | IC50 [5]: 1250 nM

Cc1ccc(COc2ccc(Nc3c(C#N)cnc4cc(OC5CCOC5)c(NC(=O)/C=C/CN(C)C)cc34)cc2Cl)cc1 (centres unmarked) [Example 19, (E)-N-(4-(4-(4-METHYLBENZYLOXY)-3-CHLOROPHENYLAMINO)-3-CYANO-7-(TETRAHYDROFURAN-3-YL-OXY)QUINOLIN-6-YL)-4-(DIMETHYLAMINO)-BUT-2-ENAMIDE]
IC50 [1]: 621 nM | IC50 [2]: 32 nM | IC50 [3]: 1100 nM | IC50 [4]: 32 nM | IC50 [5]: 2000 nM

CN(C)C/C=C/C(=O)Nc1cc2c(Nc3ccc(OCc4ccccc4F)c(Cl)c3)c(C#N)cnc2cc1OC1CCOC1 (centres unmarked) [Example 8, (E)-N-(4-(4-(2-FLUOROBENZYLOXY)-3-CHLOROPHENYLAMINO)-3-CYANO-7-(TETRAHYDROFURAN-3-YL-OXY)QUINOLIN-6-YL)-4-(DIMETHYLAMINO)-BUT-2-ENAMIDE]
IC50 [1]: 878 nM | inhibition at 1 µM [2]: 79% | IC50 [3]: 1200 nM | IC50 [4]: 5.6 nM | IC50 [5]: 1700 nM

CN(C)C/C=C/C(=O)Nc1cc2c(Nc3ccc(OCc4ccccn4)c(Cl)c3)c(C#N)cnc2cc1O[C@H]1CCOC1 [Example 138, (S,E)-N-(4-(3-CHLORO-4-(PYRIDIN-2-YL-METHOXY)PHENYLAMINO)-3-CYANO-7-(TETRAHYDROFURAN-3-YL-OXY)QUINOLIN-6-YL)-4-(DIMETHYLAMINO)-BUT-2-ENAMIDE]
IC50 [1]: 1000 nM | IC50 [2]: 3 nM | inhibition at 1 µM [2]: 82% | IC50 [3]: 2200 nM | IC50 [4]: 4.4 nM | IC50 [5]: 1500 nM

CN(C)C/C=C/C(=O)Nc1cc2c(Nc3ccc(OCc4ccccc4C#N)c(Cl)c3)c(C#N)cnc2cc1OC1CCOC1 (centres unmarked) [Example 13, (E)-N-(4-(4-(2-CYANOBENZYLOXY)-3-CHLOROPHENYLAMINO)-3-CYANO-7-(TETRAHYDROFURAN-3-YL-OXY)QUINOLIN-6-YL)-4-(DIMETHYLAMINO)-BUT-2-ENAMIDE]
IC50 [1]: 922 nM | IC50 [2]: 11 nM | inhibition at 1 µM [2]: 75% | IC50 [3]: 1800 nM | IC50 [4]: 4.4 nM | IC50 [5]: 1100 nM

CN(C)C/C=C/C(=O)Nc1cc2c(Nc3ccc(OCc4ccccc4)c(Cl)c3)c(C#N)cnc2cc1OC1CCOC1 (centres unmarked) [Example 12, (E)-N-(4-(4-(BENZYLOXY)-3-CHLOROPHENYLAMINO)-3-CYANO-7-(TETRAHYDROFURAN-3-YL-OXY)QUINOLIN-6-YL)-4-(DIMETHYLAMINO)-BUT-2-ENAMIDE]
IC50 [1]: 1200 nM | IC50 [2]: 8 nM | IC50 [3]: 970 nM | IC50 [4]: 6.1 nM | IC50 [5]: 2000 nM

CN(C)C/C=C/C(=O)Nc1cc2c(Nc3ccc(OCc4cccc(Cl)c4)c(Cl)c3)c(C#N)cnc2cc1OC1CCOC1 (centres unmarked) [Example 11, (E)-N-(4-(4-(3-CHLOROBENZYLOXY)-3-CHLOROPHENYLAMINO)-3-CYANO-7-(TETRAHYDROFURAN-3-YL-OXY)QUINOLIN-6-YL)-4-(DIMETHYLAMINO)-BUT-2-ENAMIDE]
IC50 [1]: 1200 nM | IC50 [2]: 7.9 nM | IC50 [3]: 1500 nM | IC50 [4]: 11 nM | IC50 [5]: 1600 nM

CN(C)C/C=C/C(=O)Nc1cc2c(Nc3ccc(F)c(Cl)c3)c(C#N)cnc2cc1O[C@H]1CCOC1 [Example 142, (S,E)-N-(4-(3-CHLORO-4-FLUOROPHENYLAMINO)-3-CYANO-7-(TETRAHYDROFURAN-3-YL-OXY)QUINOLIN-6-YL)-4-(DIMETHYLAMINO)-BUT-2-ENAMIDE]
IC50 [1]: 1500 nM | IC50 [2]: 133 nM | inhibition at 1 µM [2]: 89% | IC50 [3]: 1040 nM | IC50 [4]: 75 nM | IC50 [5]: 1500 nM

CN(C)C/C=C/C(=O)Nc1cc2c(Nc3ccc(OCc4cccc(F)c4)c(Cl)c3)c(C#N)cnc2cc1OC1CCOC1 (centres unmarked) [Example 9, (E)-N-(4-(4-(3-FLUOROBENZYLOXY)-3-CHLOROPHENYLAMINO)-3-CYANO-7-(TETRAHYDROFURAN-3-YL-OXY)QUINOLIN-6-YL)-4-(DIMETHYLAMINO)-BUT-2-ENAMIDE]
IC50 [1]: 458 nM | IC50 [2]: 5.2 nM | Growth Inhibition Ratio (%) [2]: 78% | IC50 [3]: 1700 nM | IC50 [4]: 8.6 nM | IC50 [5]: 1700 nM

Cc1ccccc1COc1ccc(Nc2c(C#N)cnc3cc(OC4CCOC4)c(NC(=O)/C=C/CN(C)C)cc23)cc1Cl (centres unmarked) [Example 17, (E)-N-(4-(4-(2-METHYLBENZYLOXY)-3-CHLOROPHENYLAMINO)-3-CYANO-7-(TETRAHYDROFURAN-3-YL-OXY)QUINOLIN-6-YL)-4-(DIMETHYLAMINO)-BUT-2-ENAMIDE]
IC50 [1]: 1000 nM | IC50 [2]: 17 nM | IC50 [3]: 1500 nM | IC50 [4]: 21 nM | IC50 [5]: 2400 nM

CN(C)C/C=C/C(=O)Nc1cc2c(Nc3ccc(OCc4cccc(C#N)c4)c(Cl)c3)c(C#N)cnc2cc1OC1CCOC1 (centres unmarked) [Example 15, (E)-N-(4-(4-(3-CYANOBENZYLOXY)-3-CHLOROPHENYLAMINO)-3-CYANO-7-(TETRAHYDROFURAN-3-YL-OXY)QUINOLIN-6-YL)-4-(DIMETHYLAMINO)-BUT-2-ENAMIDE]
IC50 [1]: 1100 nM | IC50 [2]: 8.1 nM | inhibition at 1 µM [2]: 71% | IC50 [3]: 1400 nM | IC50 [4]: 7.1 nM | IC50 [5]: 3900 nM

N#Cc1cnc2cc(O[C@H]3CCOC3)c(NC(=O)/C=C/CN3CCCCC3)cc2c1Nc1ccc(OCc2ccccn2)c(Cl)c1 [Example 151, (S,E)-N-(4-(3-CHLORO-4-(PYRIDIN-2-YL-METHOXY)PHENYLAMINO)-3-CYANO-7-(TETRAHYDROFURAN-3-YL-OXY)QUINOLIN-6-YL)-4-(PIPERIDIN-1-YL)-BUT-2-ENAMIDE]
IC50 [1]: 810 nM | IC50 [2]: 6.5 nM | inhibition at 1 µM [2]: 80% | IC50 [4]: 16 nM | IC50 [5]: 3700 nM

CN(C)C/C=C/C(=O)Nc1cc2c(Nc3ccc(OCc4ccccc4Cl)c(Cl)c3)c(C#N)cnc2cc1OC1CCOC1 (centres unmarked) [Example 10, (E)-N-(4-(4-(2-CHLOROBENZYLOXY)-3-CHLOROPHENYLAMINO)-3-CYANO-7-(TETRAHYDROFURAN-3-YL-OXY)QUINOLIN-6-YL)-4-(DIMETHYLAMINO)-BUT-2-ENAMIDE]
IC50 [1]: 1000 nM | IC50 [2]: 9.9 nM | IC50 [3]: 1700 nM | IC50 [4]: 11 nM | IC50 [5]: 2300 nM

CN(C)C/C=C/C(=O)Nc1cc2c(Nc3ccc(OCc4ccc(Cl)cc4)c(Cl)c3)c(C#N)cnc2cc1OC1CCOC1 (centres unmarked) [Example 16, (E)-N-(4-(4-(4-CHLOROBENZYLOXY)-3-CHLOROPHENYLAMINO)-3-CYANO-7-(TETRAHYDROFURAN-3-YL-OXY)QUINOLIN-6-YL)-4-(DIMETHYLAMINO)-BUT-2-ENAMIDE]
IC50 [1]: 810 nM | IC50 [2]: 35 nM | inhibition at 1 µM [2]: 72% | IC50 [3]: 1100 nM | IC50 [4]: 26 nM | IC50 [5]: 3400 nM
